Experimental data reported in patent US6967196B1, “Sulfonamide compounds and uses thereof” (Bristol-Myers Squibb Company, priority 1999, dated 2005).
Structures can show the parent of a compound that is named as a salt. Where two headings read alike, the source gives them in different places. One block for each compound: values may come before it.

Tested on: amyloid β production in transfected H4 (human neuroglioma) cells stably expressing APP constructs
Assay: In vitro cell-based assay of inhibitors of amyloid β production (ELISA)
How it was run: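 H4 neuroglioma cells stably expressing APP constructs were dosed in fresh medium, screened initially at 10-100 μM, and incubated ~16 h. Medium Aβ was measured by ELISA with C-terminal-epitope capture and N-terminal detection antibodies, quantified from a standard curve, with dose-response testing of actives.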

[1] = Homo sapiens, 16 h, transfected H4 cells stably expressing APP, approximately 16 hours incubation, amyloid β in medium by ELISA, Table B, read-out: ACTIVITY (IC50, inhibition of amyloid β production)
[2] = Homo sapiens, 16 h, transfected H4 cells stably expressing APP, approximately 16 hours incubation, amyloid β in medium by ELISA, read-out: ACTIVITY (IC50, inhibition of amyloid β production)
[3] = transfected H4 cells stably expressing APP, approximately 16 hours incubation, amyloid β in medium by ELISA, Table B, read-out: ACTIVITY (IC50, inhibition of amyloid β production)
[4] = Homo sapiens, 16 h, transfected H4 cells expressing APP, approximately 16 hours incubation, amyloid β in medium by ELISA, read-out: ACTIVITY (IC50, inhibition of amyloid β production)
[5] = Homo sapiens, 16 h, transfected H4 cells stably expressing APP constructs, approximately 16 hours incubation, amyloid β in medium by ELISA, read-out: ACTIVITY (IC50, inhibition of amyloid β production)
[6] = transfected H4 cells stably expressing APP, approx. 16 h incubation, amyloid β in medium by ELISA, read-out: ACTIVITY (IC50, inhibition of amyloid β production)
[7] = Table B, transfected H4 cells stably expressing APP, approximately 16 hours incubation, amyloid β in medium by ELISA, read-out: ACTIVITY (inhibitory concentration IC50, inhibition of amyloid β production)
[8] = transfected H4 cells stably expressing APP, approximately 16 hours incubation, amyloid β in medium by ELISA, read-out: ACTIVITY (IC50, inhibition of amyloid β production)
[9] = transfected H4 cells stably expressing APP constructs, approximately 16 hours incubation, amyloid β in medium by ELISA, read-out: ACTIVITY (IC50, inhibition of amyloid β production)
[10] = Homo sapiens, 16 h, transfected H4 cells stably expressing APP, approx. 16 h incubation, amyloid β in medium by ELISA, read-out: ACTIVITY (IC50, inhibition of amyloid β production)

Compound: C[Si](C)(C)C#Cc1ccccc1CN(c1ccccc1)S(=O)(=O)c1ccc(Cl)cc1 [Example 1087, 4-chloro-N-phenyl-N-{2-[(trimethylsilyl)ethynyl]benzyl}benzenesulfonamide]
IC50 (Homo sapiens, transfected H4 cells stably expressing APP constructs, approximately 16 hours incubation, amyloid β in medium by ELISA, read-out: ACTIVITY (IC50, inhibition of amyloid β production)): > 10000 nM

IC50 [1]: 50 to 100 nM
Compound: CC(CNC(=O)OCCc1ccccc1[C@@H](C)N(c1cc(F)ccc1F)S(=O)(=O)c1ccc(Cl)cc1)c1ccccc1 (stereo partly drawn) [Example 402, 2-[2-((1R)-1-{[(4-chlorophenyl)sulfonyl]-2,5-difluoroanilino}ethyl)phenyl]ethyl 2-phenylpropylcarbamate]

IC50 [2]: > 500 nM
Compound: CS(=O)(=O)c1cccc(N(Cc2ccccc2OCCCN2CCCCC2)S(=O)(=O)c2ccc(Cl)cc2)c1 [Example 1036, 4-chloro-N-[3-(methylsulfonyl)phenyl]-N-{2-[3-(1-piperidinyl)propoxy]benzyl}benzenesulfonamide hydrochloride]

IC50 [1]: 50 to 100 nM
Compound: CCN(CCOc1ccccc1C(C)N(c1cc(F)ccc1F)S(=O)(=O)c1ccc(Cl)cc1)C(=O)CSc1ccccc1 (stereo not drawn) [Example 417, N-{2-[2-(1-{[(4-chlorophenyl)sulfonyl]-2,5-difluoroanilino}ethyl)phenoxy]ethyl}-N-ethyl-2-(phenylsulfanyl)acetamide]

Compound: CC1(O)CCN(CCCOc2ccccc2CN(c2ccccc2)S(=O)(=O)c2ccc(Cl)cc2)CC1 [Example 312, 4-Chloro-N-{2-[3-(4-hydroxy-4-methyl-1-piperidinyl)propoxy]benzyl}-N-phenylbenzenesulfonamide Hydrochloride]
IC50 [3]: 50 to 100 nM

IC50 [4]: ≤ 25 nM
Compound: C[C@H](COC(=O)NCCCn1cnnn1)N(c1cc(Cl)ccc1F)S(=O)(=O)c1ccc(Cl)cc1 [Example 1294]

IC50 [5]: ≤ 25 nM
Compound: COC(=O)C1SCCN1CCC[C@@H](C)N(c1cc(Cl)ccc1Cl)S(=O)(=O)c1ccc(Cl)cc1 (stereo partly drawn) [Example 1105, 4-chloro-N-(2,5-dichlorophenyl)-N-[4-(2-methoxycarbonyl-3-thiazolidinyl)-1(R)-methylbutyl]benzenesulfonamide]

IC50 [3]: 100 to 500 nM
Compound: COC(=O)CSCCc1cc(F)ccc1[C@@H](C)N(c1cc(F)ccc1F)S(=O)(=O)c1ccc(Cl)cc1 [Example 477, Methyl ({2-[2-((1R)-1-[[(4-chlorophenyl)sulfonyl]-2,5-difluoroanilino}ethyl)-5-fluorophenyl]ethyl}sulfanyl)acetate]

IC50 [6]: 100 to 500 nM
Compound: CC(C)CC(=O)N(C)CCCOc1ccccc1CN(c1cc(F)ccc1F)S(=O)(=O)c1ccc(Cl)cc1 [Example 791, N-{3-[2-({[(4-chlorophenyl)sulfonyl]-2,5-difluoroanilino}methyl)phenoxy]propyl}-N,3-dimethylbutamide]

IC50 [7]: ≤ 25 nM
Compound: C[C@H](CCCC(=O)O)N(c1cc(Cl)ccc1Cl)S(=O)(=O)c1ccc(Cl)cc1 [Example 36, (5R)-5-[(2,5-dichlorophenyl][(4-chlorophenyl)sulfonyl]-amino]hexanoic Acid]

IC50 [4]: > 500 nM
Compound: C[C@H](C(=O)NCc1ccc(F)c(F)c1)N(c1cc(Cl)ccc1F)S(=O)(=O)c1ccc(Cl)cc1 [Example 1334]

IC50 [5]: 25 to 50 nM
Compound: CC(CCCN1CCOCC1)N(c1cc(Cl)ccc1F)S(=O)(=O)c1ccc(Cl)cc1 (stereo not drawn) [Example 1114, 4-chloro-N-(5-chloro-2-fluorophenyl)-N-[4-(4-morpholinyl)-1-methylbutyl]benzenesulfonamide]

IC50 [1]: 50 to 100 nM
Compound: O=S(=O)(c1ccc(Cl)cc1)N(Cc1ccccc1OCCC[S+]([O-])C1CCCCC1)c1cc(F)ccc1F (stereo not drawn) [Example 407, 4-chloro-N-{2-[3-(cyclohexylsulfinyl)propoxy]benzyl}-N-(2,5-difluorophenyl)benzenesulfonamide]

IC50 [7]: ≤ 25 nM
Compound: CC(C)(C)[Si](C)(C)OCCCCCO [Example 1, (S)-5-[[dimethyl(1,1-dimethylethyl)silyl]oxy]-1-pentanol]

Compound: O=S(=O)(c1ccc(Cl)cc1)N(Cc1ccccc1OCCCN1CCCCC1)c1cccc(Br)c1 [Example 237, N-(3-bromophenyl)-4-chloro-N-{2-[3-(1-piperidinyl)propoxy]benzyl}benzenesulfonamide Hydrochloride]
IC50 (read-out: ACTIVITY (inhibitory concentration IC50, inhibition of amyloid β production)): 25 to 50 nM

Compound: O=S(=O)(c1ccccc1)N(Cc1ccccc1OCCCN1CCC(O)C1)c1ccccc1 (stereo not drawn) [Example 809, N-{2-[3-(3-hydroxy-1-pyrrolidinyl)propoxy]benzyl}-N-phenylbenzenesulfonamide hydrochloride]
IC50 [2]: 100 to 500 nM

IC50 [8]: > 500 nM
Compound: N-{3-[2-({[(4-chlorophenyl)sulfonyl]-2,5-difluoroanilino}methyl)phenoxy]propyl}-N-methyl-3-(trifluoromethyl)benzamide [Example 891]

IC50 [6]: 100 to 500 nM
Compound: N-{3-[2-(1-{[(4-chlorophenyl)sulfonyl]-2,5-difluoroanilino}ethyl)phenoxy]butyl}-N-ethyl-2-furamide [Example 708]

Compound: 4-chloro-N-(2,5-dichlorophenyl)-N-[5-(1,1-dioxido-4-thiomorpholinyl)-1(R)-methylpropyl]benzenesulfonamide [Example 1104]
IC50 [9]: ≤ 25 nM

IC50 [10]: 100 to 500 nM
Compound: O=C(c1cccc(F)c1)N1CCCCC1CCOc1ccccc1CN(c1cc(F)ccc1F)S(=O)(=O)c1ccc(Cl)cc1 (stereo not drawn) [Example 661, 4-chloro-N-(2,5-difluorophenyl)-N-(2-{2-[1-(3-fluorobenzoyl)-2-piperidinyl]ethoxy}benzyl)benzenesulfonamide]

Compound: CC(C)SCCC[C@@H](C)N(c1cc(Cl)ccc1CO)S(=O)(=O)c1ccc(Cl)cc1 [Example 1223]
IC50 [9]: ≤ 25 nM

Compound: 4-chloro-N-(2,5-dichlorophenyl)-N-[3-[2-[4-chloro-N-(2,5-dichlorophenyl)-N-[(3-amino)-1(R)-methylpropyl]benzenesulfonamide]-3,4-dioxo-1-cyclobutenyl)amine-1(R)- [Example 1143]
IC50 [9]: 100 to 500 nM

IC50 [8]: 100 to 500 nM
Compound: 3-bromo-N-{3-[2-(1-{[(4-chlorophenyl)sulfonyl]-2,5-difluoroanilino}ethyl)phenoxy]propyl}-N-methylbenzamide [Example 820]

IC50 [10]: 100 to 500 nM
Compound: O=S(=O)(c1ccc(Cl)cc1)N(Cc1ccccc1C#CCN1CCCCC1)c1cc(F)ccc1F [Example 711, 4-chloro-N-(2,5-difluorophenyl)-N-{2-[3-(1-piperidinyl)-1-propynyl]benzyl}benzenesulfonamide hydrochloride]

IC50 [6]: 100 to 500 nM
Compound: 2,2,2-trichloro-N-{2-[2-(1-{[(4-chlorophenyl)sulfonyl]-2,5-difluoroanilino}ethyl)phenoxy]ethyl}-N-ethylacetamide [Example 744]

IC50 [2]: > 500 nM
Compound: O=S(=O)(c1ccc(Cl)cc1)N(Cc1ccccc1C#CCCN1CCCCC1)c1ccccc1 [Example 973, 4-chloro-N-phenyl-N-{2-[4-(1-piperidinyl)-1-butynyl]benzyl}benzenesulfonamide]

IC50 [8]: > 500 nM
Compound: N-{3-[2-({[(4-chlorophenyl)sulfonyl]-2,5-difluoroanilino}methyl)phenoxy]propyl}-3,4,5-trimethoxy-N-methylbenzamide [Example 989]

IC50 [6]: 100 to 500 nM
Compound: N-{3-[2-(1-{[(4-chlorophenyl)sulfonyl]-2,5-difluoroanilino}ethyl)phenoxy]propyl}-N-methyl-3-nitrobenzamide [Example 737]

Compound: CSCCC[C@@H](C)N(c1cc(Cl)ccc1F)S(=O)(=O)c1ccc(Cl)cc1 [Example 1178, 4-chloro-N-[5-chloro-2-fluorophenyl]-N-[1(R)-methyl-(4-methylthio)butyl]benzenesulfonamide]
IC50 [9]: ≤ 25 nM

IC50 [6]: 100 to 500 nM
Compound: S-ethyl-3-[2-({[(4-chlorophenyl)sulfonyl]-2,5-difluoroanilino}methyl)phenoxy]propyl(methyl)thiocarbamate [Example 757]

Compound: COC(=O)[C@@H](CC(C)C)NC(=O)CCC[C@@H](C)N(c1cc(Cl)ccc1F)S(=O)(=O)c1ccc(Cl)cc1 [Example 1267, (R)-4-Chloro-N-(5-chloro-2-fluorophenyl)-N-[5-[N-(R)-[1-(methoxycarbonyl)-3-methylbutyl]amino]-1-methyl-5-oxopentyl]benzenesulfonamide]
IC50 [9]: 25 to 50 nM

IC50 [6]: 100 to 500 nM
Compound: 2-((1R)-1-{[(4-chlorophenyl)sulfonyl]-2,5-difluoroanilino}ethyl)benzyl 1,2,3,4-tetrahydro-1-naphthalenylcarbamate [Example 660]

Compound: O=S(=O)(c1ccc(Cl)cc1)N(Cc1ccc2ccccc2c1OCCCN1CCCCC1)c1cc(F)ccc1F [Example 272, 4-Chloro-N-(2,5-difluorophenyl)-N-({1-[3-(1-piperidinyl)propoxy]-2-naphthylmethyl)benzenesulfonamide Hydrochloride]
IC50 [3]: 25 to 50 nM
